Data from patent publication US9371301B2, “Prenylarene compound and use thereof” (Osaka University, priority 2010, dated 2016).
“Also recorded” adds a separate entry of the source.

Experiments:
[1] = tested on: Mouse sarcoma S180 cells; test: Antitumor activity in mouse cancer cell transplant model; format: in vivo; conditions: ddY mice; for tumor weight, % of that of the control group / weight loss, diarrhea, visual abnormalities in organs: once every two days, 7 times; for tumor weight, % of that of the control group: S180; for weight loss, diarrhea, visual abnormalities in organs: all dose groups; for weight loss, diarrhea, visual abnormalities in organs / antitumor activity: oral; for antitumor activity: S180 transplant model
Procedure: A suspension of the test compound analog-k5 was prepared at predetermined concentrations in 1% CMC. The vehicle (1% CMC) was administered to the control group.
Mouse sarcoma S180 cells were prepared as a suspension of the density of 1×10^7 cells/mL in a serum-free RPMI culture medium and the suspension was kept on ice. Then, 100 μL (1×10^6 cells) each of the cell suspension was subcutaneously inoculated to the ventral side in female ddY mice (5-week old, six mice/group) with an injection needle of 23G. The mice were maintained for one week for engraftment of the […]. The test compound (10 mg/kg, 25 mg/kg and 50 mg/kg) or the vehicle (1% CMC) was orally administered on a schedule of once every two days, 7 times in total. The antitumor activity was evaluated as follows: one day after the final administration, tumors were isolated and weighed and then the tumor weight was compared between the test compound administration groups and the control group. Significance analysis was performed using a Dunnett's test at a significance level of 5%.
Analog-f9, which is represented by formula (VI), and analog-k13, which is represented by formula (CI), were used as the test compounds, and both were evaluated for the antitumor activity in a mouse cancer cell transplant model according to the same method as described in Example 6. However, the number of mice per group was changed to four, and the doses of test compounds were changed to 3 mg/kg, 10 mg/kg and 25 mg/kg.

[2] = tested on: human prostate cancer DU145 cells; test: Inhibitory activity on normoxic cell growth (MTT); format: cell-based; conditions: for inhibitory activity on normoxic cell growth as compared with furospinosulin-1: in a high dose; for inhibitory activity on normoxic cell growth as compared with furospinosulin-1 / inhibitory activity on normoxic cell growth: DU145
Procedure: (§1) Analog-k5, which is represented by formula (II), and analog-k6, which is represented by formula (III), were used as test compounds and furospinosulin-1 was used as the control compound. The test compounds and the control compound were separately dissolved in EtOH, and the respective solutions were prepared at predetermined concentrations. The cells used were human prostate cancer DU145 cells. Analog-k6 was synthesized according to the method described in Example 1 for synthesis of analog-k5 except for using 3-bromothiophene instead of 3-bromofuran.
Meanwhile, the inhibitory activity of the test compounds on normoxic cell growth was measured in the following manner. To each well of 96-well multiwell plates, 200 μL (1×10^4 cells/well) of a DU145 cell suspension was added, and culture was performed under conditions of 5% CO2 and 37° C. for 12 hours. Then, the test compound solutions in EtOH were added to the corresponding wells in a volume of 2 μL per well, and culture was further continued under the same conditions for 24 hours. After 24 hours of culture, as is the case in hypoxic conditions, the MTT reagent was added and finally the ratio of growth inhibition was calculated.
(§2) Analog-f9, which is represented by formula (VI), and analog-k13, which is represented by formula (CI), were used as the test compounds, and both were evaluated for the selective inhibitory activity on hypoxic cancer cell growth according to the same method as described in Example 5.

[3] = tested on: human prostate cancer DU145 cells; test: Selective inhibitory activity on hypoxic cancer cell growth (MTT, hypoxic conditions 1% O2); format: cell-based; conditions: for selective inhibitory activity on hypoxic cell growth: 24 h, MTT
Procedure: as §1
To each well of 96-well multiwell plates, 200 μL (1×10^4 cells/well) of a DU145 cell suspension was added, and preculture was performed under conditions of 5% CO2 and 37° C. for 4 hours. Then, the multiwell plates were placed in a hypoxic culture chamber (manufactured by Mitsubishi Gas Chemical Company, Inc.) of 1% O2, 5% CO2 and 94% N2 (hypoxic conditions) and culture was performed for 12 hours. Then, the test compound solutions in EtOH were added to the corresponding wells in a volume of 2 μL per well, and culture was further continued under hypoxic conditions for 24 hours. After 24 hours of culture, MTT (3-(4,5-dimethylthiazol-2-yl)-2,5-diphenyltetrazolium bromide) reagent prepared at 200 μg/mL was added in a volume of 50 μL per well, and culture was performed under conditions of 5% CO2 and 37° C. for 3 hours. Next, after removal of the culture medium, the resulting MTT formazan was extracted with 200 μL of DMSO per well. The amount of the formazan dye was quantified by a colorimetric method (OD 560 nm) and the ratio of growth inhibition was calculated.
as §2

[4] = tested on: Mouse sarcoma S180 cells; conditions: mice subcutaneously inoculated with S180 cells; Non Patent Literature 4; cited from earlier work
[5] = tested on: insulin-like growth factor 2 (IGF-2); conditions: mechanism of action; Non Patent Literature 4; cited from earlier work
[6] = tested on: human prostate cancer DU145 cells; conditions: Non Patent Literature 4; cited from earlier work
[7] = at 1000 μM, DU145, hypoxic (1% O2) vs normoxic

SMILES	tumor weight, % of that of the control group ([1]; 10 mg/kg oral)	tumor weight, % of that of the control group ([1]; 25 mg/kg oral)	tumor weight, % of that of the control group ([1]; 50 mg/kg oral)	weight loss, diarrhea, visual abnormalities in organs [1]	antitumor activity [1]	inhibitory activity on normoxic cell growth as compared with furospinosulin-1 [2]	selective inhibitory activity on hypoxic cell growth [3, 7]	inhibitory activity on normoxic cell growth ([2]; concentrations of 10 μM or lower)	inhibitory activity on normoxic cell growth ([2]; concentrations of 100 μM or lower)	tumor weight, % of that of the control group ([1]; 3 mg/kg oral)	selective inhibition of hypoxic cell growth compared with furospinosulin-1 ([3]; entire range of tested concentrations, DU145)	in vivo tumor weight as compared with the control [4]	hypoxia-inducible expression of IGF-2 [5]	in vitro cancer cell growth inhibition, hypoxia selectivity [6]	growth inhibitory activity against normoxic cells ([2]; at 1000 μM, DU145, 24 h, MTT)	selective inhibitory activity on hypoxic cell growth ([3]; concentrations of 300 μM or lower, DU145, hypoxic vs normoxic)
CC(C)=CCC/C(C)=C/CC/C(C)=C/CC/C=C/CCc1ccoc1 [analog-k5]	70%	41%	28%	In no administration groups, weight loss or diarrhea, or visual abnormalities in organs of the mice were observed	showed marked antitumor activity	lower inhibitory activity on normoxic cell growth	showed selective inhibitory activity on hypoxic cell growth									
CC(C)=CCC/C(C)=C/CC/C(C)=C/CC/C(C)=C/CC/C(C)=C/CCc1ccsc1 [analog-f9]	29%	18%		In no administration groups, regardless of the kind of test compound, weight loss or diarrhea, or visual abnormalities in organs of the mice were observed		lower inhibitory activity on normoxic cell growth	showed selective inhibitory activity on hypoxic cell growth	hardly inhibits normoxic cell growth	remarkably low inhibitory activity on normoxic cell growth							
CC(C)=CCC/C(C)=C/CC/C(C)=C/CC/C=C/CCc1ccsc1 [analog-k6]						lower inhibitory activity on normoxic cell growth	showed selective inhibitory activity on hypoxic cell growth									
C#CCC/C(C)=C/CC/C(C)=C/CC/C(C)=C/CC/C(C)=C/CCc1ccoc1 [analog-k13]	41%	28%		In no administration groups, regardless of the kind of test compound, weight loss or diarrhea, or visual abnormalities in organs of the mice were observed	showed marked antitumor activity	lower inhibitory activity on normoxic cell growth	showed selective inhibitory activity on hypoxic cell growth			70%	stronger than that of furospinosulin-1					
CC(C)=CCC/C(C)=C/CC/C(C)=C/CC/C(C)=C/CCc1ccoc1 [furospinosulin-1, reference compound]							equal growth inhibitory activity against normoxic cells and hypoxic cells; also recorded: not selective for hypoxic cells					significantly reduces in vivo tumor weight	inhibition of hypoxia-inducible expression of insulin-like growth factor 2 (IGF-2)	inhibits in vitro cancer cell growth in a hypoxia-selective manner	showed growth inhibitory activity even against normoxic cells	showed selective inhibitory activity on hypoxic cell growth
